{"source": "patent EP4311830A1", "about": "(King Faisal Specialist Hospital & Research Centre, priority 2022, dated 2024)", "format_in_all_cases": "cell-based", "key": {"[1]": {"system": "OV-2774", "assay": "Cytotoxicity assay (WST1)", "settings": "Ovarian, OV-2774, WST1", "method": "(§1) 5,000 cells/well were seeded in 96-well plates with appropriate culture media. After cells treatment, WST-1 reagent (Sigma-Aldrich) was added to each well according to the manufacturer's instructions. These experiments were performed in triplicates and were repeated several times."}, "[2]": {"system": "A1235", "assay": "Cytotoxicity assay (WST1)", "settings": "Glioblastoma", "method": "as §1"}, "[3]": {"system": "Cal62", "assay": "Cytotoxicity assay (WST1)", "settings": "Thyroid", "method": "as §1"}, "[4]": {"system": "H-1937", "assay": "Cytotoxicity assay (WST1)", "settings": "Lung, H-1937, WST1", "method": "as §1"}, "[5]": {"system": "MG-64", "assay": "Cytotoxicity assay (WST1)", "settings": "Osteosarcoma, MG-64, WST1", "method": "as §1"}, "[6]": {"system": "CSC (MDA-MB-231)", "assay": "WST1 cytotoxicity on pre-formed tumorspheres (cancer stem cells)", "settings": "cisplatin 50 µM for 24 h, MDA-MB-231 tumorspheres", "method": "(§2) It is well known that cancer stem cells are the most resistant type of cells, which are responsible for recurrence and metastasis (Garcia-Mayea et al., 2020). Therefore, we decided to investigate the effect of eugenoplatin on the self-renewal ability and sternness capacity of cancer cells. To this end, cancer cells were first either sham-treated (DMSO) or challenged with eugenoplatin (3 µM) for 24 h, and then were incubated in 96 well ultra-low attachment plates in the presence of stem cells culture medium. After 10 days, the formed spheroids with a dimeter ≥ 100 µm were counted (Fig. 6A).\nas §1\n(§3) Cells were seeded in 96 well ultra-low attachment plate at a density of 1000 viable cells/well. Cells were cultured in 171 medium supplemented with 1% ABM, 2% B-27, 20 ng/mL EGF, 500 ng/ml HC, 4% FBS and 5 µg/ml insulin. Cells were incubated for 10 days at 37°C under 5% CO2. Mammospheres with a diameter of ≥100 µm were counted using OPTIKA light microscope."}, "[7]": {"system": "CSC (MG-64)", "assay": "WST1 cytotoxicity on pre-formed tumorspheres (cancer stem cells)", "settings": "cisplatin 50 µM for 24 h, MG-64 tumorspheres", "method": "as §2, §1, §3"}, "[8]": {"system": "human fibroblast cells (HFSN1)", "assay": "γ-H2AX immunofluorescence (DNA damage)", "settings": "cisplatin 50 µM for 24 h", "method": "Since cisplatin is a DNA damaging chemotherapeutic drug, we investigated whether eugenoplatin can also promote DNA damage in cells. […] To confirm this, we assessed the level of the phosphorylated form of p53 (P.p53) in eugenoplatin-treated cells. […] This was accompanied by a late increase in the level of the p53 target p21 (Fig. 7B).\nHFSN1 cells were fixed in formaldehyde (4%) for 19 minutes and blocked with Goat serum (5%), triton X (0.3%) and 1% sodium azide (5%) for 1 hour. The slides were then stained overnight at 4 °C with γ-H2AX antibody (pSer139) (Novusibio) that diluted in BSA (1%), triton X (0.3%) and 1 % sodium azide (5%), and subsequently incubated with alexa flour 594-conjugated goat anti-rabbit IgG and DAPI for 1 hour. Images were acquired using fluorescence microscope (Zeiss)."}, "[9]": {"system": "HCT-116", "assay": "Cytotoxicity assay (WST1)", "settings": "Colon, HCT-116, WST1", "method": "as §1"}}}
{"compound": "N.N.O=C([O-])C1(C(=O)[O-])CCC1.[Pt+2]", "note": "[Carboplatin]", "values": [{"measurement": "IC50", "setting": "[1]", "value": "53.3 ± 0.67", "unit": "µM"}]}
{"compound": "N.N.[Cl][Pt][Cl]", "note": "[Cisplatin, (SP-4-2)-diamminedichloridoplatinum(II)]", "values": [{"measurement": "IC50", "setting": "[2]", "value": "55.8 ± 18.2", "unit": "µM"}, {"measurement": "IC50", "setting": "[3]", "value": "25.7 ± 2.19", "unit": "µM"}, {"measurement": "IC50", "setting": "[4]", "value": "67.8 ± 7.75", "unit": "µM"}, {"measurement": "IC50", "setting": "[5]", "value": "26 ± 4", "unit": "µM"}, {"measurement": "proportion of survival CSC", "setting": "[6]", "value": "not affected"}, {"measurement": "proportion of survival CSC", "setting": "[7]", "value": "not affected"}, {"measurement": "γ-H2AX immunostaining", "setting": "[8]", "value": "strong nuclear staining"}]}
{"compound": "O=C(O)C(=O)O.[NH-][C@@H]1CCCC[C@H]1[NH-].[Pt+2]", "note": "[Oxaliplatin]", "values": [{"measurement": "IC50", "setting": "[9]", "value": "3.17 ± 0.52", "unit": "µM"}]}
